# Laboratory results: ChEMBL document CHEMBL5052818, “Aminopyrimidine derivatives as ctps1 inhibitors” (2019)
# Assay: Inhibition of C-terminal FLAG-His-tagged full length human CTPS1 measured after 60 mins by ADP-Glo assay
row,IC50 [nM],SMILES
1,> 100,CCOc1cncc(-c2ccc(NC(=O)C(C)(C)c3ccnc(NS(=O)(=O)C4CCC4)n3)nc2)n1
2,> 100,Cc1cc(-c2cncc(C(F)(F)F)n2)ccc1NC(=O)C(C)(C)c1ccnc(NS(=O)(=O)C2CC2)n1
3,> 100,CCC(C(=O)Nc1ccc(-c2cncc(OCC(F)(F)F)c2)cc1F)c1ccnc(NS(=O)(=O)C2CC2)n1 (stereo unspecified)
4,≤ 100,CC(C)Oc1cncc(-c2ccc(NC(=O)C(C)(C)c3ccnc(NS(=O)(=O)C4CC4)n3)c(F)c2)n1
5,> 100,CCOc1cncc(-c2ccc(NC(=O)C(C)(C)c3ccnc(NS(=O)(=O)C4(C)CC4)n3)cc2)n1
6,≤ 100,CCC(C(=O)Nc1ccc(-c2cncc(OCC(F)(F)F)n2)cc1F)c1ccnc(NS(=O)(=O)C2CC2)n1 (stereo unspecified)
7,≤ 100,CCOc1cncc(-c2ccc(NC(=O)Cc3ccnc(NS(=O)(=O)C4CC4)n3)cc2)n1
8,≤ 100,CCOc1cncc(-c2cnc(NC(=O)C(C)(C)c3ccnc(NS(=O)(=O)C4CC4)n3)c(F)c2)n1
9,> 100,CCOc1cncc(-c2ccc(NC(=O)C(C)(C)c3nc(NS(=O)(=O)C4CC4)ncc3F)cc2)n1
10,> 100,CCOc1cncc(-c2cc(C)c(NC(=O)C(C)(C)c3ccnc(NS(=O)(=O)C4CC4)n3)cc2F)n1
11,≤ 100,CCOc1cncc(-c2ccc(NC(=O)C(CC)c3ccnc(NS(=O)(=O)C4CC4)n3)cc2)n1 (stereo unspecified)
12,≤ 100,CCC(C(=O)Nc1ccc(-c2cncc(C(F)(F)F)n2)cc1F)c1ccnc(NS(=O)(=O)C2CC2)n1 (stereo unspecified)
13,≤ 100,CC(C)Oc1cncc(-c2ccc(NC(=O)C(C)(C)c3ccnc(NS(=O)(=O)C4CC4)n3)cc2)n1
14,> 100,CCOc1cncc(-c2ccc(NC(=O)C(C)(C)c3ccnc(NS(=O)(=O)C4CC4)n3)nc2)c1
15,≤ 100,CC(C)(C(=O)Nc1ccc(-c2cncc(C(F)(F)F)n2)cc1F)c1ccnc(NS(=O)(=O)C2CC2)n1
16,> 100,CCC(C(=O)Nc1ccc(-c2cncc(Cl)c2)cc1F)c1ccnc(NS(=O)(=O)C2CC2)n1 (stereo unspecified)
17,> 100,CCC(C(=O)Nc1ccc(-c2cnccn2)cc1)c1ccnc(NS(=O)(=O)C2CC2)n1 (stereo unspecified)
18,> 100,O=C(Cc1ccnc(NS(=O)(=O)C2CC2)n1)Nc1ccc(-c2cncc(OCC(F)(F)F)c2)cc1
19,> 100,CCC(C(=O)Nc1ccc(-c2cncc(Cl)n2)cc1)c1ccnc(NS(=O)(=O)C2CC2)n1 (stereo unspecified)

row,IC50 [nM],SMILES
1,≤ 100,CCOc1cncc(-c2ccc(NC(=O)C(C)(C)c3ccnc(NS(=O)(=O)C4CC4)n3)c(Cl)c2)n1
2,> 1000,O=C(Cc1nc(NS(=O)(=O)C2CC2)ncc1F)Nc1ccc(-c2cccnc2)cc1
3,≤ 100,CCOc1cncc(-c2ccc(NC(=O)C(CC)c3ccnc(NS(=O)(=O)C4CC4)n3)nc2)n1 (stereo unspecified)
4,≤ 100,CCOc1cncc(-c2ccc(NC(=O)C3(c4ccnc(NS(=O)(=O)C5CC5)n4)CC3)cc2)n1
5,≤ 100,COc1cncc(-c2ccc(NC(=O)C(C)(C)c3ccnc(NS(=O)(=O)C4CC4)n3)cc2)n1
6,> 100,CC(C)(C(=O)Nc1ccc(-c2cncc(Cl)c2)cc1)c1ccnc(NS(=O)(=O)C2CC2)n1
7,> 100,CCOc1cncc(-c2ccc(NC(=O)C(C)(C)c3ccnc(NS(=O)(=O)C4CC4)n3)c(C)c2C)n1
8,≤ 100,CCOc1cncc(-c2ccc(NC(=O)C(CC)(CC)c3ccnc(NS(=O)(=O)C4CC4)n3)cc2)n1
9,> 100,COc1cncc(-c2ccc(NC(=O)C(C)(C)c3ccnc(NS(=O)(=O)C4CC4)n3)cc2)c1
10,> 100,CCC(C(=O)Nc1ccc(-c2cncc(C#N)c2)cc1)c1ccnc(NS(=O)(=O)C2CC2)n1 (stereo unspecified)
11,> 100,CC(C)Oc1cncc(-c2ccc(NC(=O)C(C)(C)c3ccnc(NS(=O)(=O)C4CC4)n3)cc2)c1
12,≤ 100,CCOc1cncc(-c2ccc(NC(=O)C(CC)c3ccnc(NS(=O)(=O)C4CC4)n3)c(F)c2)n1 (stereo unspecified)
13,≤ 100,CCOc1cncc(-c2cc(F)c(NC(=O)C(C)(C)c3ccnc(NS(=O)(=O)C4CC4)n3)c(F)c2)n1
14,> 100,CC(C)Oc1cncc(-c2ccc(NC(=O)C(C)(C)c3ccnc(NS(=O)(=O)C4CCC4)n3)c(F)c2)n1
15,> 1000,CC(C)(C(=O)Nc1ccc(-c2cccc(C#N)c2)cc1)c1ccnc(NS(=O)(=O)C2CC2)n1
16,> 1000,CC(C)(C(=O)Nc1ccc(-c2cccc(Cl)c2)cc1)c1ccnc(NS(=O)(=O)C2CC2)n1
17,> 100,CCC(C(=O)Nc1ccc(-c2cncc(OC(C)C)c2)cc1F)c1ccnc(NS(=O)(=O)C2CC2)n1 (stereo unspecified)
18,≤ 100,CCC(C(=O)Nc1ccc(-c2cncc(OC(C)C)n2)cc1F)c1ccnc(NS(=O)(=O)C2CC2)n1 (stereo unspecified)

# Further lines, the compound ahead of its results:
row,SMILES,IC50 [nM]
1,CC(C)(C(=O)Nc1ccc(-c2cncnc2)cc1)c1ccnc(NS(=O)(=O)C2CC2)n1,> 1000
2,CCOc1cncc(-c2ccc(NC(=O)C(C)(C)c3nc(NS(=O)(=O)C4CC4)ncc3C)cc2)n1,> 1000
3,CCOc1cncc(-c2ccc(NC(=O)C3(c4ccnc(NS(=O)(=O)C5CC5)n4)CCCC3)cc2)n1,≤ 100
4,CCC(C(=O)Nc1ccc(-c2cncc(OC(C)C)n2)cc1)c1ccnc(NS(=O)(=O)C2CC2)n1 (stereo unspecified),≤ 100
5,CCOc1cncc(-c2cnc(NC(=O)C(C)(C)c3ccnc(NS(C)(=O)=O)n3)c(F)c2)n1,> 100
6,CCOc1cncc(-c2ccc(NC(=O)C(C)(C)c3ccnc(NS(=O)(=O)C4CC4)n3)c(F)c2)n1,≤ 100
7,O=C(Cc1ccnc(NS(=O)(=O)C2CC2)n1)Nc1ccc(-c2cncc(OCC(F)(F)F)n2)cc1,≤ 100
8,CC(C)(C(=O)Nc1ccc(-c2cncc(C(F)(F)F)n2)cn1)c1ccnc(NS(=O)(=O)C2CC2)n1,≤ 100
9,CC(C)Oc1cncc(-c2ccc(NC(=O)C(C)(C)c3ccnc(NS(C)(=O)=O)n3)c(F)c2)c1,> 1000
10,Cc1cc(-c2cncc(C(F)(F)F)n2)ccc1NC(=O)C(C)(C)c1ccnc(NS(C)(=O)=O)n1,> 100
11,Cc1cncc(-c2ccc(NC(=O)C(C)(C)c3ccnc(NS(C)(=O)=O)n3)c(C)c2)n1,> 1000
12,CCOc1cncc(-c2ccc(NC(=O)C(C)(C)c3ccnc(NS(C)(=O)=O)n3)nc2)n1,> 100
13,O=C(Cc1ccnc(NS(=O)(=O)C2CC2)n1)Nc1ccc(-c2cncc(C(F)(F)F)c2)cc1,> 100
14,CC(C)Oc1cncc(-c2ccc(NC(=O)C(C)(C)c3ccnc(NS(=O)(=O)C4CC4)n3)nc2)n1,≤ 100
15,CCOc1cccc(-c2ccc(NC(=O)C(C)(C)c3ccnc(NS(=O)(=O)C4CC4)n3)cc2)c1,> 10000
16,CC(C)Oc1cncc(-c2ccc(NC(=O)C(C)(C)c3ccnc(NS(=O)(=O)C4CC4)n3)c(F)c2)c1,> 100
17,CC(C)(C(=O)Nc1ccc(-c2cncc(F)c2)cc1)c1ccnc(NS(=O)(=O)C2CC2)n1,> 100
18,CC(C)(C(=O)Nc1ccc(-c2cncc(C#N)c2)cc1)c1ccnc(NS(=O)(=O)C2CC2)n1,> 100
19,O=C(Cc1ccnc(NS(=O)(=O)C2CC2)n1)Nc1ccc(-c2cncc(C(F)(F)F)n2)cc1F,≤ 100
20,CCC(C(=O)Nc1ccc(-c2cncc(OC(C)C)c2)cc1)c1ccnc(NS(=O)(=O)C2CC2)n1 (stereo unspecified),> 100
21,CCOc1cncc(-c2ccc(NC(=O)C(C)(C)c3ccnc(NS(=O)(=O)C4CC4)n3)cc2)c1,> 100
22,CC(C)Oc1cncc(-c2ccc(NC(=O)Cc3ccnc(NS(=O)(=O)C4CC4)n3)cc2)n1,≤ 100
23,CCOc1cncc(-c2cc(F)c(NC(=O)C(C)(C)c3ccnc(NS(=O)(=O)C4CC4)n3)cc2C)n1,> 100
24,CCC(C(=O)Nc1ccc(-c2cncc(OCC(F)(F)F)n2)cc1)c1ccnc(NS(=O)(=O)C2CC2)n1 (stereo unspecified),≤ 100
25,CCC(C(=O)Nc1ccc(-c2cncc(C(F)(F)F)c2)cc1)c1ccnc(NS(=O)(=O)C2CC2)n1 (stereo unspecified),> 100

row,SMILES,IC50 [nM]
1,CC(C)(C(=O)Nc1ccc(-c2cccnc2)cn1)c1ccnc(NS(=O)(=O)C2CC2)n1,> 1000
2,CC(C)(C(=O)Nc1ccc(-c2cncc(C(F)(F)F)c2)cc1)c1ccnc(NS(=O)(=O)C2CC2)n1,> 100
3,CC(C)(C(=O)Nc1ccc(-c2cncc(C(F)(F)F)n2)cc1)c1ccnc(NS(C)(=O)=O)n1,> 100
4,CC(C)(C(=O)Nc1ccc(-c2cncc(C(F)(F)F)n2)cc1)c1ccnc(NS(=O)(=O)C2CC2)n1,≤ 100
5,CCOc1cncc(-c2ccc(NC(=O)C(C)(C)c3ccnc(NS(=O)(=O)CC)n3)cc2)n1,> 100
6,COc1cncc(-c2ccc(NC(=O)C(C)(C)c3ccnc(NS(=O)(=O)C4CCC4)n3)cc2)n1,> 100
7,CCC(C(=O)Nc1ccc(-c2cncc(OCC(F)(F)F)c2)cn1)c1ccnc(NS(=O)(=O)C2CC2)n1 (stereo unspecified),> 100
8,CCOc1cncc(-c2ccc(NC(=O)C(CCOC)c3ccnc(NS(=O)(=O)C4CC4)n3)cc2)n1 (stereo unspecified),≤ 100
9,CC(C)Oc1cncc(-c2ccc(NC(=O)Cc3ccnc(NS(=O)(=O)C4CC4)n3)c(F)c2)n1,≤ 100
10,CCOc1cncc(-c2ccc(NC(=O)C(C)(C)c3ccnc(NS(=O)(=O)C4CC4)n3)cc2)n1,≤ 100
11,CCOc1cncc(-c2ccc(NC(=O)C(C)(C)c3ccnc(NS(=O)(=O)C(C)(C)C)n3)cc2)n1,> 1000
12,CC(C(=O)Nc1ccc(-c2cccnc2)cc1)c1ccnc(NS(=O)(=O)C2CC2)n1 (stereo unspecified),> 100
13,CC(C)(C(=O)Nc1ccc(-c2cncc(OC3CC3)n2)cc1)c1ccnc(NS(=O)(=O)C2CC2)n1,> 100
14,CCOc1cncc(-c2ccc(NC(=O)C(C)(C)c3ccnc(NS(=O)(=O)C4CCC4)n3)cc2)n1,> 100
15,Cc1cncc(-c2ccc(NC(=O)C(C)(C)c3ccnc(NS(=O)(=O)C4CC4)n3)cc2)c1,> 100
16,CCOc1cncc(-c2ccc(NC(=O)C(C)(C)c3ccnc(NS(=O)(=O)C4CC4)n3)c(OC(F)(F)F)c2)n1,≤ 100
17,CC(C)(C(=O)Nc1ccc(-c2cccnc2)cc1)c1ccnc(NS(=O)(=O)C2CC2)n1,> 1000
18,CCOc1cncc(-c2ccc(NC(=O)C(C)(C)c3ccnc(NS(C)(=O)=O)n3)cc2)n1,≤ 100
19,CCC(C(=O)Nc1ccc(-c2cncc(C(F)(F)F)c2)cn1)c1ccnc(NS(=O)(=O)C2CC2)n1 (stereo unspecified),> 100
20,CCC(C(=O)Nc1ccc(-c2cncc(Cl)c2)cc1)c1ccnc(NS(=O)(=O)C2CC2)n1 (stereo unspecified),> 100
21,CCS(=O)(=O)Nc1nccc(C(C)(C)C(=O)Nc2ccc(-c3cncc(C(F)(F)F)n3)cc2)n1,> 100
22,CC(C)(C(=O)Nc1ccc(-c2cncc(OC(F)F)c2)cc1)c1ccnc(NS(=O)(=O)C2CC2)n1,≤ 100
23,CCC(C(=O)Nc1ccc(-c2cncc(OC)n2)cc1)c1ccnc(NS(=O)(=O)C2CC2)n1 (stereo unspecified),≤ 100
24,O=C(Cc1ccnc(NS(=O)(=O)C2CC2)n1)Nc1ccc(-c2cncc(C(F)(F)F)n2)cc1,≤ 100
